The text below walks through data of patent US10357536B2, “Anti-pathogenic methods” (Hexima Limited, priority 2012, dated 2019).

Entries after “also recorded” stand apart in the source; their conditions may differ. No end group written: not given here.

One assay relates to hyphal cells. It counts as cell-based.
In a further assay the test system is Fgr hyphae. It counts as cell-based, Fusarium graminearum.
The next assay has as its system Fov hyphae. It counts as cell-based, Fusarium oxysporum f. sp vasinfectum.

As for “HXL001: Class I plant defensin, Zea mays, mature domain SEQ ID NO: 3 (RHCLSQSHRFKGLCMSSNNCANVCETQNFPGGECKAEGATRKCFCKKIC; HXL001 Zea mays mature domain)”, in the assay on hyphal cells, the Permeabilizing entry is “Yes”. The substance also registered a Permeability index in the assay on Fgr hyphae of 0.9.

As to “HXL002: Class I plant defensin, Triticum aestivum, mature domain SEQ ID NO: 6 (RDCLSQSHKFKGACLSSSNCAAVCRTENFPDGECHTHNFARKCFCKRAC; HXL002 Triticum aestivum mature domain)”, in the assay on Fov hyphae, the Permeability index came out at 0.9 and the “permeabilization of Fov hyphae (SYTOX green uptake), in words” value (from here on “permeabilization of Fov hyphae”) is on record as “able to permeabilize Fov hyphae; also recorded: permeabilizing”. In the assay on hyphal cells, the Permeabilizing entry is reported as “Yes”. In the assay on Fgr hyphae, the Permeability index was found to be 1.0 and the “permeabilization of Fgr hyphae (SYTOX green uptake), in words” value (“permeabilization of Fgr hyphae” for short) is recorded as “significantly more permeabilisation of Fgr hyphae; also recorded: permeabilizing”.

Consider “HXL004: Class I plant defensin, Nicotiana benthamiana, mature domain SEQ ID NO: 12 (RTCESQSHRFKGLCFSRSNCASVCHTEGFNGGHCRGFRRRCFCTRHC; HXL004 Nicotiana benthamiana mature domain aa)”, for which, in the assay on hyphal cells, the Permeabilizing entry is “Yes”. Also, in the assay with Fgr hyphae, the Permeability index is reported as 1.6 and the “permeabilization of Fgr hyphae” value is reported as “significantly more permeabilisation of Fgr hyphae; also recorded: permeabilizing”.

Take “HXL005: Class I plant defensin, Taraxacum kok-saghyz, mature domain SEQ ID NO: 15 (KMCQTTSHAFSCVNDSGCSGSCEKQGFASGKCDGVRRRCTCYKKC; HXL005 Taraxacum kok-saghyz mature domain)”: the Permeabilizing result with hyphal cells is “No”.

For the substance “HXL007: Class I plant defensin, Cyamopsis tetragonoloba, mature domain SEQ ID NO: 21 (RTCESLADTYRGPCFTDGSCDDHCKNKEHLISGRCRNDFRCWCTRNC; HXL007 Cyamopsis tetragonoloba mature domain)”, in the assay on Fov hyphae, the Permeability index is 1.2 and the “permeabilization of Fov hyphae” value is “able to permeabilize Fov hyphae; also recorded: permeabilizing”. Also, the Permeabilizing result with hyphal cells is on record as “Yes”.

For the substance “HXL008: Class I plant defensin, Picramnia pentandra, mature domain SEQ ID NO: 24 (KVCTKPSKFFKGLCGTDGACTTACRKEGLHSGYCQLKGFLNSVCVCRKHC; HXL008 Picramnia pentandra mature domain aa)”, in the assay with Fov hyphae, the Permeability index is 0.8 and the “permeabilization of Fov hyphae” value was “able to permeabilize Fov hyphae; also recorded: permeabilizing”. For the same substance, the Permeabilizing result in the assay with hyphal cells was “Yes”. In the assay on Fgr hyphae, the Permeability index stood at 0.9 and the “permeabilization of Fgr hyphae” value is “significantly more permeabilisation of Fgr hyphae; also recorded: permeabilizing”.

“HXL009: Class I plant defensin, Zea mays, mature domain SEQ ID NO: 27 (TVCMRHNNFYHGPCMSNKDCANSCVQHNLGVGGYCRGKIPFNKECMCTFEC; HXL009 Zea mays mature domain aa)”: in the assay with hyphal cells, the Permeabilizing result is “No”. Also, in the assay on Fgr hyphae, the Permeability index is 0.4 and the “permeabilization of Fgr hyphae” value is “non-permeabilizing”.

For the substance “HXL013: Class I plant defensin, Glycine max, mature domain SEQ ID NO: 39; Table 2 gives SBI6 the same SEQ ID NO (KDCLTRRHGFQGRCLFDRQCAHVCRSDGPIGGQCRGPLRKCFCSRPC; HXL013 Glycine max mature domain aa)”, in the assay with hyphal cells, the Permeabilizing result was “Yes”. Moreover, in the assay on Fgr hyphae, the Permeability index is recorded as 1.4 and the “permeabilization of Fgr hyphae” value is “permeabilizing”.

For “HXL015: Class I plant defensin, Oryza sativa, mature domain SEQ ID NO: 45 (RHCLSQSHRFKGMCVSSNNCANVCRTESFPDGECKSHGLERKCFCKKVC; HXL015 Oryza sativa mature domain aa)”, the Permeabilizing entry in the assay with hyphal cells is recorded as “No”.

For the substance “HXL021: Class I plant defensin, Arachis hypogaea, mature domain SEQ ID NO: 63 (ATCENLADTYRGPCFTTGSCDDHCKNKEHLLSGRCRDDFRCWCTRNC; HXL021 Arachis hypogaea mature domain aa)”, the Permeabilizing result in the assay with hyphal cells was “No”. Besides, in the assay on Fgr hyphae, the Permeability index stood at 0.5 and the “permeabilization of Fgr hyphae” value is “non-permeabilizing”.

Regarding “HXP4: artificial variant defensin, SEQ ID NO: 70 (RECKTESHRFKGPCITKPPCRKACISEKFTDGHCSKILRRCLCTKPC; Amino acid sequence of HXP4 (NaD2 Loop1B [NaD2L1B] in NaD1))”, in the assay on Fov hyphae, the Permeability index was 0.7 and the “permeabilization of Fov hyphae” value is given as “able to permeabilize Fov hyphae; also recorded: permeabilizing”. In addition, the Permeabilizing result in the assay on hyphal cells is “Yes”. Also, in the assay with Fgr hyphae, the Permeability index stood at 1.3 and the “permeabilization of Fgr hyphae” value was “significantly more permeabilisation of Fgr hyphae; also recorded: permeabilizing”.

In the case of “HXP34: artificial variant defensin, SEQ ID NO: 71 (RECKTESQHHSFPCITKPPCRKACISEKFTDGHCSKILRRCLCTKPC; Amino acid sequence of HXP34 (Zea2 Loop1B [Zea2L1B] in NaD1))”, the Permeabilizing entry with hyphal cells is given as “Yes”.

For “HXP35: artificial variant defensin, SEQ ID NO: 72 (RECKTESDTYRGVCITKPPCRKACISEKFTDGHCSKILRRCLCTKPC; Amino acid sequence of HXP35 (PsD1 Loop1B [PsDL1B] in NaD1))”, the Permeabilizing entry in the assay on hyphal cells was “Yes”.

Regarding “Hordothionin: Class I plant defensin, Hordeum vulgare, accession P20230”, the Permeabilizing result in the assay with hyphal cells is reported as “No”. Besides, in the assay with Fgr hyphae, the Permeability index came to 0.4 and the “permeabilization of Fgr hyphae” value is recorded as “non-permeabilizing”.

As to “NaD1: Class II plant defensin, Nicotiana alata, accession Q8GTM0; positive control of the permeabilization assay (RECKTESNTFPGICITKPPCRKACISEKFTDGHCSKILRRCLCTKPC; UniProt Q8GTM0 26-72, looked up) [reference compound]”, in the assay on Fov hyphae, the Permeability index is listed as 1.0 and the “permeabilization of Fov hyphae” value is reported as “able to permeabilize Fov hyphae; also recorded: permeabilizing”. Besides, the Permeabilizing result with hyphal cells is “Yes”. In addition, in the assay on Fgr hyphae, the Permeability index came out at 1.0 and the “permeabilization of Fgr hyphae” value was “significantly more permeabilisation of Fgr hyphae; also recorded: permeabilizing”.

For the substance “NoD173: Class II plant defensin, Nicotiana occidentalis, mature domain SEQ ID NO: 98 (RQCKAESNTFTGICIAKPPCRQACIREKFTDGHCSKVLRRCLCTKRC; NoD173 Nictoniana occidentalis)”, the Permeabilizing entry in the assay on hyphal cells is recorded as “Yes”.

Regarding “RsAFP2: Class I plant defensin, Raphanus sativus, accession P30230 (QKLCQRPSGTWSGVCGNNNACKNQCIRLEKARHGSCNYVFPAHKCICYFPC; ends and bridges not checked; cysteine pairing not given here; UniProt P30230 30-80, looked up)”, the Permeabilizing result with hyphal cells is recorded as “No”. Moreover, in the assay on Fgr hyphae, the Permeability index turned out to be 0.3 and the “permeabilization of Fgr hyphae” value was “non-permeabilizing”.

As for “VP42: Class I plant defensin, Triticum aestivum, mature domain SEQ ID NO: 81 (RHCESQSHRYRGACWRDDNCKHVCNTEGFPSGKCKFHGFESKCVCTKPC; VP42 mature domain)”, the Permeabilizing entry in the assay with hyphal cells was “No”.

As for “VP45: Class I plant defensin, Zea mays, mature domain SEQ ID NO: 83 (TVCMRHNNFYHGPCMSNKDCANSCVQHNLGVGGYCRGKIPFNKECMCTFEC; VP45 mature domain)”, the Permeabilizing entry in the assay on hyphal cells is “No”.

As to “VP135: Class I plant defensin, Picramnia pentandra, mature domain SEQ ID NO: 85 (RICSSLSHGYKGPCASDHNCALVCRNEGFSGGDCHGLRRRCFCTKAC; VP135 mature domain)”, the Permeabilizing entry with hyphal cells is “No”.
